Experiments:
[1] = molecular target: T1, recombinant human EP4 receptor membrane protein (Homo sapiens, UniProt P35408); assay: Radioligand binding assay for EP4 receptor ([3H]-PGE2); details: [3H]-PGE2 1.5 nM; membrane protein 20 μg/well
T1 construct: expressed in transfected cells; host or cells: membranes of 293 cells overexpressing human EP4 receptor
Experimental: The compounds to be tested and PGE2 were formulated as 10 mM stocks in a DMSO solvent, and then 8 concentration points of 4× working solution were serially diluted using a buffer (50 mM HBSS, 0.1% BSA, 500 mM NaCl). […] Unifilter-96 GF/C filter plate (Perkin Elmer) was soaked with 0.5% BSA, 50 μL per well, for at least 30 min at room temperature. After binding was complete, the reaction mixture was harvested through a GF/C plate using a Perkin Elmer Filtermate Harvester, followed by washing the filter plate and drying the filter plate for 1 hour at 50° C. After drying, the bottom of the filter plate wells was sealed using a Perkin Elmer Unifilter-96 sealing tape, and 50 μL of MicroScint™-20 cocktail (Perkin Elmer) was added to seal the top of the filter plate. The ^3H counts captured on the filter were read using a Perkin Elmer MicroBeta2 Reader.
The IC50 and Ki values of the compounds determined by the radioligand binding assay for EP4 receptor were calculated based on the inhibition rate of the different concentrations of the compounds.

[2] = Mouse pharmacokinetic assay; type: in vivo, male ICR mice; details: male, ICR, plasma
Experimental: (§1) In a mouse pharmacokinetic assay, male ICR mice (20 g to 25 g) were selected and fasted overnight. Three mice were selected and intragastrically administered with 5 mg/kg of the corresponding compound. The blood of the mice was collected before the administration and at 15 min, 30 min, 1 h, 2 h, 4 h, 8 h, 24 h after the administration. Another 3 mice were intravenously administered with 1 mg/kg of the corresponding compound, and the blood thereof was collected before the administration and at 15 min, 30 min, 1 h, 2 h, 4 h, 8 h, 24 h after the administration. The blood samples were centrifuged at 6800 g at 2° C. to 8° C. for 6 minutes, and plasma was collected and stored at −80° C. The plasma was taken at respective time point, mixed with 3-5 times the amount of acetonitrile containing internal standard, vortexed for 1 minute, centrifuged at 4° C. for 10 minutes at 13000 rpm, supernatant was added 3 times the amount of water, and the appropriate mixture was taken for LC-MS/MS analysis. The primary pharmacokinetic parameters were analyzed with a WinNonlin 7.0 software, with non-compartmental model.

[3] = system: CT-26 murine colon cancer tumor model; assay: Anti-tumor effect in CT-26 murine colon cancer tumor model in combination with radiation therapy; type: in vivo, mouse; details: 150 mg/kg intragastric once daily in combination with radiotherapy (3Gry, once on day 1); day 23; tumor weight
Experimental: In this assay, the anti-tumor effects of the control compound and the compounds prepared in Examples 1 to 43, in combination with radiation therapy, were tested in a CT-26 murine colon cancer tumor model.
After one week of adaptive feeding of mice, CT-26 cells in a log phase were resuspended in PBS, 5×10^5 CT-26 cells were inoculated subcutaneously at the right flank at 100 μL per mouse, and tumor growth was observed regularly. When the tumor grew to an average volume of 60 to 80 mm^3, the mice carrying the tumor were randomly divided into 5 groups based on the tumor volume size, each group containing 10 mice of 10. These group were a group of Control compound (150 mg/kg) in combination with radiotherapy (3Gry), a group of Compound I-2 (150 mg/kg) in combination with radiotherapy, a group of Compound I-5 (150 mg/kg) in combination with radiotherapy, a group of radiotherapy (3Gry) alone, and a group of vehicle control. The mice were intragastrically administered with the corresponding compound once daily, for 23 days in total; radiation therapy was performed for one-time on the first day of the administration. Tumor volumes and mouse body weights were measured twice a week, and tumor weights were weighed at the end of the experiment. Efficacy evaluations were performed based on relative tumor inhibition (TGI), safety evaluations were performed based on changes in animal body weight and death. Tumor volume and relative tumor inhibition were calculated as follows:
Tumor volume (TV)=½×a×b^2, where a and b are the length and width of the tumor measurement, respectively.
Relative tumor inhibition rate TGI (%)=(TWc−TWt/TWc)×100%, where TWc is the mean tumor weight of the vehicle control group and TW is the mean tumor weight of the treatment group.

[4] = molecular target: T2, human EP4 receptor (Homo sapiens, UniProt P35408); assay: Assay of calcium current inhibition on EP4 receptor (FLIPR, 293 cells); type: cell-based; design: expressed in transfected cells; host or cells: 293 cells; details: 293 cells overexpressing human EP4; PGE2 at EC80; FLIPR
T2 sequence (P35408 whole entry): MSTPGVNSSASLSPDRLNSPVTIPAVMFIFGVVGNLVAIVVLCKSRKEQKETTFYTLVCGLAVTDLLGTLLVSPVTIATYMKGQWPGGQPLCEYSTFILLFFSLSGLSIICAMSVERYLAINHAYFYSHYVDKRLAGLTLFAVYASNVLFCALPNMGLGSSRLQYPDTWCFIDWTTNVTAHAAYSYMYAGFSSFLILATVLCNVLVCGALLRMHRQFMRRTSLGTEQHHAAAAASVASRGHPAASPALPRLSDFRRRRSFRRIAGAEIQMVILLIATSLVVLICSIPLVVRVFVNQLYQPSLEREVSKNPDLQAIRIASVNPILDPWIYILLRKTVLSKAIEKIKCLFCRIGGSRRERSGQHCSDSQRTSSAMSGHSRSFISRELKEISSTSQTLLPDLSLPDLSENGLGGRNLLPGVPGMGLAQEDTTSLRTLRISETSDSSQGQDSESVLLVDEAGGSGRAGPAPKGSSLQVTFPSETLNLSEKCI
Experimental: The cells were rapidly thawed in a 37° C. water bath, centrifuged, resuspended, and counted. The cell suspensions were seeded at 20 μL/well in two 384-well plates (20,000 cells/well) and placed in an incubator (a 37° C., 5% CO2) overnight. Preparation of a 2× Fluo-4 Direct™ (Invitrogen, Cat #F10471) loading buffer: 77 mg of probenecid was added to 1 mL of a FLIPR buffer, with a concentration of 250 mM. 10 mL of FLIPR buffer and 0.2 mL of probenecid (250 mM) were added to each tube of Fluo-4 Direct™ crystals (F10471).
One of the cell plates was taken out of the incubator and the medium was removed. 20 μL of an assay buffer and 2× Fluo-4 Direct™ non-wash loading buffer were added to the 384-well cell culture plate to a final volume of 40 μL, and then the culture plate was incubated in an incubator (a 37° C., 5% CO2) for 50 minutes, and then at room temperature for 10 minutes, and then the plate was placed in the FLIPR. 10 μL of the buffer was transferred to the cell plate and the fluorescence signal was read. The agonist PGE2 was formulated as a 10 mM stock in a DMSO solvent and 10 concentration points of the 6× working solution were serially diluted using the buffer. 10 μL of the agonist PGE2 was transferred to the cell plate, the fluorescence signal was read to calculate EC80 value.
The agonist PGE2 was prepared at 6× EC80 concentration and the compound to be tested was formulated as a 10 mM stock solution in the DMSO solvent and 10 concentration points of the 6× compound working solution was serially diluted using the buffer.
Another cell plate was taken to remove media and 20 μL of the assay buffer and 2× Fluo-4 Direct™ non-wash loading buffer were added; the cell plate was incubated in a 37° C., 5% CO2 incubator for 50 minutes and room temperature for 10 minutes and then placed in the FLIPR. 10 μL of the compound working solution, DMSO, and the EP4 full antagonist were transferred to the cell plate and the fluorescence signal was read. […] Inhibition (%)=100−(test group−EP4 full antagonist group)/(DMSO group−EP4 full antagonist group)*100
Compound's IC50 value of EP4 calcium current inhibition was calculated based on the inhibition rate at different concentrations of the compound.

[5] = molecular target: T2, human EP4 receptor; assay: Assay for EP4 antagonistic effect (cAMP, PGE2-stimulated CHO stable cell line)
Experimental: After trypsinization, cells were resuspended in a buffer (1×HBSS, 0.1% BSA, 20 mM HEPES, and 500 μM IBMX) and 8000 cells were seeded per well in 384-well plates in a seeding volume of 15 μL. A working solution the compound with a 8× concentration was prepared with an experimental buffer, and then 2.5 μL of the working solution of the compound with 8× concentration was added to the 384-well plate, respectively, and incubated at 37° C. for 30 min. An agonist PGE2 working solution with 8× concentration of (4 nM) was prepared with the experimental buffer and 2.5 μL per well was added to the 384-well plate (the final PGE2 concentration was 0.5 nM) and incubated at 37° C. for 30 min. After the reaction was completed, the amount of cAMP in the cells was quantified according to the method in the instructions of the cAMP test kit (Perkin Elmer, Cat #TRF0263). The antagonistic effects (IC50 value) were calculated for the test compounds.

[6] = Rat pharmacokinetic assay; type: in vivo, male SD rats; details: male, SD, plasma, rat
Experimental: as §1
In a rat pharmacokinetic assay, male SD rats (180 g to 240 g) were selected and fasted overnight. Three rats were intragastrically administered with 5 mg/kg of the corresponding compound. Another 3 rats were intravenously administered with 1 mg/kg of the corresponding compound. The following operations were the same as the mouse pharmacokinetic assay.

[7] = Canine pharmacokinetic assay; type: in vivo, male Beagle dogs; details: male, Beagle, dog, plasma, canine
Experimental: as §1
In a canine pharmacokinetic assay, male Beagle dogs (8 kg to 10 Kg) were selected and fasted overnight. Three Beagle dogs were taken and intragastrically administered with 3 mg/kg of the corresponding compound. Another 3 Beagle dogs were intravenously administered with 1 mg/kg of the corresponding compound. The following operations were the same as the mouse pharmacokinetic assay.

[8] = oral gavage administration 5 mg/kg
[9] = intravenous administration 1 mg/kg
[10] = intravenous administration 1 mg/kg, read-out: Vz
[11] = oral gavage administration 3 mg/kg

T1 sequence (P35408 whole entry): as above

Row | SMILES | IC50 [1] [nM] | Ki [1] [nM] | AUC(0-t) [2, 8] [ng·h/mL] | Cmax [2, 8] [ng/mL] | Tmax [2, 8] [h] | half-life [2, 8] [h] | relative tumor inhibition rate TGI (%) [3] [%] | IC50 [4] [nM] | IC50 [5] [nM] | AUC(0-t) [7, 11] [ng·h/mL] | Cmax [7, 11] [ng/mL] | Tmax [7, 11] [h] | half-life [7, 11] [h] | also measured
1 | CCc1cc(Oc2c(C(=O)N[C@@H](C)c3ccc(C(=O)O)cc3)c(C(F)F)nn2C)ccc1F [Compound I-2, (S)-4-(1-(3-(difluoromethyl)-5-(3-ethyl-4-fluorophenoxy)-1-methyl-1H-pyrazole-4-carboxamido)ethyl)benzoic Acid] | 5.5 | 3 | 2140 | 1840 | 0.33 | 15.7 | 63 | 7.4 | 1.9 | – | – | – | – | –
2 | C[C@H](NC(=O)c1c(C(F)F)nn(C)c1Oc1cccc(CC(F)(F)F)c1)c1ccc(C(=O)O)cc1 [Compound I-6, (S)-4-(1-(3-(difluoromethyl)-1-methyl-5-(3-(2,2,2-trifluoroethyl)phenoxy)-1H-pyrazole-4-carboxamido)ethyl)benzoic Acid] | 11 | 5.8 | 4440 | 1280 | 0.42 | 7.22 | – | 8 | 8.2 | – | – | – | – | –
3 | C[C@H](NC(=O)c1c(C(F)F)nn(C)c1Oc1cccc(C(F)(F)F)c1)c1ccc(C(=O)O)cc1 [Control Compound, reference compound] | – | – | 1770 | 792 | 0.25 | 30.9 | 54 | – | – | 6800 | 1360 | 1 | 18.6 | AUC(0-t) [2, 9]: 974 ng·h/mL; clearance [2, 9]: 14.7 mL/min/kg; half-life [2, 9]: 6.64 h; Vd [2, 10]: 8.38 L/kg; AUC(0-t) [6, 9]: 1420 ng·h/mL; clearance [6, 9]: 10.2 mL/min/kg; half-life [6, 9]: 10.9 h; Vd [6, 10]: 9.55 L/kg; AUC(0-t) [6, 8]: 6850 ng·h/mL; Cmax [6, 8]: 1100 ng/mL; Tmax [6, 8]: 0.5 h; half-life [6, 8]: 12.7 h; AUC(0-t) [7, 9]: 3730 ng·h/mL; clearance [7, 9]: 4 mL/min/kg; half-life [7, 9]: 9.36 h; Vd [7, 10]: 3.21 L/kg
4 | C[C@H](NC(=O)c1c(C(F)F)nn(C)c1Sc1cccc(C(F)(F)F)c1)c1ccc(C(=O)O)cc1 [Compound I-35, (S)-4-(1-(3-(difluoromethyl)-1-methyl-5-((3-(trifluoromethyl)phenyl)thio)-1H-pyrazole-4-carboxamido)ethyl)benzoic Acid] | 28 | 15 | 3060 | 1040 | 0.33 | 7.12 | – | 6 | 6.6 | – | – | – | – | –
5 | CCc1cccc(Oc2c(C(=O)N[C@@H](C)c3ccc(C(=O)O)cc3)c(C(F)F)nn2C)c1 [Compound I-1, (S)-4-(1-(3-(difluoromethyl)-5-(3-ethylphenoxy)-1-methyl-1H-pyrazole-4-carboxamido)ethyl)benzoic Acid] | 16 | 8.9 | 2140 | 1110 | 0.33 | 4.33 | – | 15 | 3.7 | – | – | – | – | –
6 | C[C@H](NC(=O)c1c(C(F)F)nn(C)c1Oc1csc(C(F)(F)F)c1)c1ccc(C(=O)O)cc1 [Compound I-42, (S)-4-(1-(3-(difluoromethyl)-1-methyl-5-((5-(trifluoromethyl)thiophen-3-yl)oxy)-1H-pyrazole-4-carboxamido)ethyl)benzoic Acid] | 13 | 7.3 | 2440 | 570 | 0.33 | 23.2 | – | 15 | 8.6 | 7190 | 4850 | 0.25 | 8.35 | –

— US12643889B2, “Synthesis of novel EP4 antagonist and use in cancer and inflammation” (Wuhan Humanwell Innovative Drug Research And Development …, priority 2020, dated 2026)
